≈ marks a conversion by molar mass, not a printed value. Each block holds one molecule with its values, some of them ahead of it. Calls of active or inactive are those of the source. The calls are words filed in the database; no cut-off is given here.
Assays:
[1] = system: Bacillus subtilis; assay: Antibacterial activity against Bacillus subtilis W23 assessed as reduction in bacterial growth incubated overnight by microplate reader analysis; format: functional
[2] = system: Escherichia coli; assay: Inhibition of MraY overexpressed in Escherichia coli membrane using UDP-MurNAc-L-Ala-gamma-D-Glu-L-Lys(N epsilon-dansyl)-D-Ala-D-Ala as substrate at 200 uM by continuous fluoresence assay; format: cell membranes
[3] = system: Escherichia coli; assay: Antibacterial activity against Escherichia coli K-12 assessed as reduction in bacterial growth incubated overnight by microplate reader analysis; format: functional
[4] = system: Pseudomonas fluorescens; assay: Antibacterial activity against Pseudomonas fluorescence Pf-5 assessed as reduction in bacterial growth incubated overnight by microplate reader analysis; format: functional
[5] = system: Escherichia coli; assay: (§1) Inhibition of MraY overexpressed in Escherichia coli membrane using UDP-MurNAc-L-Ala-gamma-D-Glu-L-Lys(N epsilon-dansyl)-D-Ala-D-Ala and undecaprenyl phosphate as substrate assessed as reduction in lipid II synthesis at 200 uM incubated for 30 mins in presence of [3H]-UDPGlcNAc by liquid scintillation counting analysis; format: cell membranes
[6] = system: Escherichia coli; assay: as §1, with “Inhibition of Escherichia coli MraY overexpressed” for “Inhibition of MraY overexpressed”, “counting analysis relative to control” for “counting analysis”; format: cell membranes
[7] = system: Acinetobacter baumannii; assay: Antibacterial activity against multi drug resistant ESBL positive Acinetobacter baumannii NCTC 13420 assessed as reduction in bacterial growth by CLSI protocol based assay; format: functional
[8] = system: Enterobacter cloacae; assay: Antibacterial activity against ESBL positive Enterobacter cloacae NCTC 13405 assessed as reduction in bacterial growth by CLSI protocol based assay; format: functional
[9] = system: Enterococcus faecalis; assay: Antibacterial activity against high level aminoglycoside resistant Enterococcus faecalis ATCC 51299 assessed as reduction in bacterial growth by CLSI protocol based assay; format: functional
[10] = system: Klebsiella pneumoniae; assay: Antibacterial activity against ESBL positive Klebsiella pneumoniae ATCC 700603 assessed as reduction in bacterial growth by CLSI protocol based assay
[11] = system: Pseudomonas aeruginosa; assay: Antibacterial activity against multi drug resistant Pseudomonas aeruginosa NCTC 13437 assessed as reduction in bacterial growth by CLSI protocol based assay; format: functional
[12] = system: Staphylococcus aureus; assay: Antibacterial activity against Staphylococcus aureus MRSA JE2 USA300 assessed as reduction in bacterial growth by CLSI protocol based assay; format: functional
[13] = system: Escherichia coli; assay: Inhibition of MraY overexpressed in Escherichia coli membrane using UDP-MurNAc-L-Ala-gamma-D-Glu-L-Lys(N epsilon-dansyl)-D-Ala-D-Ala as substrate at 200 ug/ml by fluoresence enhancement assay; format: cell membranes; settings: dose 200.0 µg/ml
[14] = system: Escherichia coli; assay: Bacteriocidal activity against Escherichia coli at 250 ug/ml incubated for 1 hr followed by alamar blue addition measured after 2 to 3 hrs by fluorescence based analysis; format: functional, organism-based; settings: dose 250.0 µg/ml
[15] = system: Pseudomonas aeruginosa; assay: Antibacterial activity against Pseudomonas aeruginosa assessed as reduction in bacterial growth by NCCLS protocol based broth dilution method; format: functional
[16] = system: Bacillus subtilis; assay: Antibacterial activity against Bacillus subtilis assessed as reduction in bacterial growth by NCCLS protocol based broth dilution method; format: functional
[17] = system: Escherichia coli; assay: Bacteriostatic activity against Escherichia coli at 250 ug/ml incubated for 1 hr followed by alamar blue addition measured after 2 to 3 hrs by fluorescence based analysis; format: functional, organism-based; settings: dose 250.0 µg/ml
[18] = system: Escherichia coli; assay: Antibacterial activity against Escherichia coli K-12 assessed as reduction in bacterial growth by NCCLS protocol based broth dilution method; format: functional
[19] = Inhibition of MraY overexpressed in Escherichia coli membrane using UDP-MurNAc-L-Ala-gamma-D-Glu-L-Lys(N epsilon-dansyl)-D-Ala-D-Ala as substrate by continuous fluoresence assay; format: cell membranes
[20] = system: Escherichia coli; assay: Inhibition of Escherichia coli MraY overexpressed in Escherichia coli membrane using UDP-MurNAc-L-Ala-gamma-D-Glu-L-Lys(N epsilon-dansyl)-D-Ala-D-Ala as substrate at 200 uM by continuous fluoresence assay relative to control; format: cell membranes

SMILES: CCCCCCC(=O)N(Cc1ccccc1)c1ccc(C(=O)N[C@@H](CCCCN)C(=O)OC)c(OCCc2c[nH]c3ccccc23)c1
inhibition [6]: 22%
MIC50 [7]: > 256 µg/mL
MIC50 [1]: 28 µg/mL (≈ 43.7 µM)
MIC50 [3]: 4 µg/mL (≈ 6.24 µM)
MIC50 [4]: > 125 µg/mL
MIC50 [8]: > 256 µg/mL
MIC50 [9]: 8 µg/mL (≈ 12.5 µM)
MIC50 [10]: > 256 µg/mL
MIC50 [11]: > 256 µg/mL
MIC50 [12]: > 256 µg/mL

SMILES: CCCCCCCCOC(=O)[C@H](Cc1ccc(O)cc1)NC(=O)[C@@H](N)CCCNC(=N)N
MIC50 [1]: 25 µg/mL (≈ 55.6 µM)
inhibition [13]: inactive
MIC50 [3]: 118 µg/mL (≈ 262 µM)
MIC50 [4]: 124 µg/mL (≈ 276 µM)

SMILES: CCCCCCCCNC(=O)[C@H](Cc1c[nH]c2ccccc12)NC(=O)[C@@H](N)CCCCN
Activity [14]: Active
MIC50 [1]: 11 µg/mL (≈ 24.8 µM)
inhibition [13]: inactive
MIC50 [3]: 17 µg/mL (≈ 38.3 µM)
MIC50 [4]: 26 µg/mL (≈ 58.6 µM)

SMILES: CCCCCCCCOC(=O)[C@H](Cc1c[nH]c2ccccc12)NC(=O)[C@@H](N)CCCNC(=N)N
MIC50 [15]: 40 µg/mL (≈ 84.6 µM)
MIC50 [16]: 8 µg/mL (≈ 16.9 µM)
Activity [17]: Active
MIC50 [18]: 31 µg/mL (≈ 65.6 µM)
MIC50 [7]: > 256 µg/mL
MIC50 [1]: 13 µg/mL (≈ 27.5 µM)
inhibition [13]: inactive
MIC50 [3]: 5 µg/mL (≈ 10.6 µM)
MIC50 [4]: 18 µg/mL (≈ 38.1 µM)
MIC50 [8]: > 256 µg/mL
MIC50 [9]: > 256 µg/mL
MIC50 [10]: > 256 µg/mL
MIC50 [11]: > 256 µg/mL
MIC50 [12]: > 256 µg/mL

SMILES: CCCCCCC(=O)N(CCc1c[nH]c2ccccc12)c1ccc(C(=O)N[C@@H](CCCCN)C(=O)OC)c(OCCc2c[nH]c3ccccc23)c1
inhibition [6]: 21%
MIC50 [7]: > 256 µg/mL
MIC50 [1]: 58 µg/mL (≈ 83.6 µM)
MIC50 [3]: 4 µg/mL (≈ 5.76 µM)
MIC50 [4]: > 125 µg/mL
MIC50 [8]: > 256 µg/mL
MIC50 [9]: 16 µg/mL (≈ 23.1 µM)
MIC50 [10]: > 256 µg/mL
MIC50 [11]: > 256 µg/mL
MIC50 [12]: > 256 µg/mL

SMILES: CCCCCCCCOC(=O)[C@H](Cc1c[nH]c2ccccc12)NC(=O)[C@@H](N)CCCNc1ncccn1
MIC50 [1]: 10 µg/mL (≈ 19.7 µM)
inhibition [13]: inactive
MIC50 [3]: 9 µg/mL (≈ 17.7 µM)
MIC50 [4]: 45 µg/mL (≈ 88.5 µM)

SMILES: CCCCCCC(=O)Nc1ccc(C(=O)N[C@@H](CCCCN)C(=O)OC)c(OCCc2c[nH]c3ccccc23)c1
inhibition [6]: 12%
MIC50 [7]: > 256 µg/mL
MIC50 [1]: 28 µg/mL (≈ 50.8 µM)
MIC50 [3]: 28 µg/mL (≈ 50.8 µM)
MIC50 [4]: 56 µg/mL (≈ 102 µM)
MIC50 [8]: > 256 µg/mL
MIC50 [9]: 64 µg/mL (≈ 116 µM)
MIC50 [10]: > 256 µg/mL
MIC50 [11]: > 256 µg/mL
MIC50 [12]: > 256 µg/mL

SMILES: CCCCCCC(=O)N(Cc1ccccc1)c1ccc(C(=O)N[C@@H](CCCCN)C(=O)OC)c(OCc2ccccc2)c1
IC50 [19]: 140 µM
inhibition [20]: 62%
MIC50 [7]: > 256 µg/mL
MIC50 [1]: 12 µg/mL (≈ 20.4 µM)
MIC50 [3]: 7 µg/mL (≈ 11.9 µM)
MIC50 [4]: 46 µg/mL (≈ 78.3 µM)
MIC50 [8]: > 256 µg/mL
MIC50 [9]: 16 µg/mL (≈ 27.2 µM)
MIC50 [10]: > 256 µg/mL
MIC50 [11]: > 256 µg/mL
MIC50 [12]: > 256 µg/mL

SMILES: CCCCCCCCNC(=O)CNC(=O)[C@@H](N)CCCCN
MIC50 [1]: 2 µg/mL (≈ 6.36 µM)
inhibition [13]: inactive
MIC50 [3]: 10 µg/mL (≈ 31.8 µM)
MIC50 [4]: 18 µg/mL (≈ 57.2 µM)

SMILES: CCCCCCC(=O)Nc1ccc(C(=O)N[C@@H](CCCCN)C(=O)OC)c(OCc2ccccc2)c1
inhibition [20]: 36%
MIC50 [7]: > 256 µg/mL
MIC50 [1]: 44 µg/mL (≈ 88.4 µM)
MIC50 [3]: 8 µg/mL (≈ 16.1 µM)
MIC50 [4]: 125 µg/mL (≈ 251 µM)
MIC50 [8]: > 256 µg/mL
MIC50 [9]: 16 µg/mL (≈ 32.2 µM)
MIC50 [10]: > 256 µg/mL
MIC50 [11]: > 256 µg/mL
MIC50 [12]: > 256 µg/mL

SMILES: CCCCCCCCOC(=O)[C@H](Cc1ccccc1)NC(=O)[C@@H](N)CCCNC(=N)N
MIC50 [1]: 11 µg/mL (≈ 25.4 µM)
inhibition [13]: inactive
MIC50 [3]: 11 µg/mL (≈ 25.4 µM)
MIC50 [4]: 64 µg/mL (≈ 148 µM)

SMILES: CCCCCCCCOC(=O)[C@H](Cc1c[nH]c2ccccc12)NC(=O)[C@@H](N)Cc1cnc[nH]1
MIC50 [7]: 64 µg/mL (≈ 141 µM)
MIC50 [1]: 12 µg/mL (≈ 26.5 µM)
inhibition [13]: inactive
MIC50 [3]: 8 µg/mL (≈ 17.6 µM)
MIC50 [4]: 21 µg/mL (≈ 46.3 µM)
MIC50 [8]: 32 µg/mL (≈ 70.5 µM)
MIC50 [9]: 8 µg/mL (≈ 17.6 µM)
MIC50 [10]: 64 µg/mL (≈ 141 µM)
MIC50 [11]: 8 µg/mL (≈ 17.6 µM)
MIC50 [12]: 16 µg/mL (≈ 35.3 µM)

SMILES: CCCCCCCCOC(=O)[C@H](Cc1c[nH]c2ccccc12)NC(=O)[C@@H](N)CCCCN
Activity [14]: Active
MIC50 [1]: 1 µg/mL (≈ 2.25 µM)
inhibition [13]: inactive
MIC50 [3]: 2 µg/mL (≈ 4.5 µM)
MIC50 [4]: 5 µg/mL (≈ 11.2 µM)

Second part, led by results:

MIC50 [1]: 10 µg/mL (≈ 18.2 µM)
inhibition [2]: inactive
MIC50 [3]: 30 µg/mL (≈ 54.6 µM)
MIC50 [4]: > 125 µg/mL
inhibition [5]: inactive
SMILES: CCCCCCCCc1ccc(C(=O)N[C@@H](CCCNC(=N)N)C(=O)O)c(OCCc2c[nH]c3ccccc23)c1

MIC50 [1]: 10 µg/mL (≈ 17.7 µM)
inhibition [2]: inactive
MIC50 [3]: > 125 µg/mL
MIC50 [4]: > 125 µg/mL
inhibition [5]: inactive
SMILES: CCCCCCCCNC(=O)c1ccc(NC(=O)[C@@H](N)CCCNC(=N)N)c(OCCc2c[nH]c3ccccc23)c1

MIC50 [1]: 9 µg/mL (≈ 17.5 µM)
MIC50 [3]: 42 µg/mL (≈ 81.6 µM)
MIC50 [4]: 19 µg/mL (≈ 36.9 µM)
SMILES: CCCCCCCCOC(=O)[C@H](Cc1c[nH]c2ccccc12)NC(=O)[C@H](CCCNC(=N)N)NC(C)=O

MIC50 [1]: 8 µg/mL (≈ 14 µM)
MIC50 [3]: 12 µg/mL (≈ 21 µM)
MIC50 [4]: 21 µg/mL (≈ 36.7 µM)
SMILES: CCCCCCCCOC(=O)[C@H](Cc1c[nH]c2ccccc12)NC(=O)[C@H](CCCNC(=N)N)NC(=O)OC(C)(C)C

MIC50 [1]: 13 µg/mL (≈ 29.2 µM)
inhibition [13]: inactive
MIC50 [3]: 37 µg/mL (≈ 83.2 µM)
MIC50 [4]: 53 µg/mL (≈ 119 µM)
SMILES: CCCCCCOC(=O)[C@H](Cc1c[nH]c2ccccc12)NC(=O)[C@@H](N)CCCNC(=N)N

MIC50 [1]: 8 µg/mL (≈ 16 µM)
inhibition [13]: inactive
MIC50 [3]: 3 µg/mL (≈ 5.99 µM)
MIC50 [4]: 3 µg/mL (≈ 5.99 µM)
SMILES: CCCCCCCCCCOC(=O)[C@H](Cc1c[nH]c2ccccc12)NC(=O)[C@@H](N)CCCNC(=N)N

MIC50 [1]: 7 µg/mL (≈ 14.8 µM)
inhibition [13]: inactive
MIC50 [3]: 3 µg/mL (≈ 6.36 µM)
MIC50 [4]: 20 µg/mL (≈ 42.4 µM)
SMILES: CCCCCCCCNC(=O)[C@H](Cc1c[nH]c2ccccc12)NC(=O)[C@@H](N)CCCNC(=N)N
Activity [14]: Active
